Test results: patent US20170239201A1, “GLYCOLIC ACID ENHANCES SPERM MOBILITY” (MAX-PLANCK-GESELLSCHAT ZUR FORDERUNG DER WISSENSCHAFTEN E.V., priority 2014, published 2017)

Columns and labels:
human sperm = experiment: Human sperm motility, fresh and defrosted sperm; format: cell-based; settings: 30 and 60 mM, significant (p<0.05) over whole experiment
Experimental: Human sperm was collected from donors after ejaculation and used on the same day. Frozen human sperm was defrosted in a warm bath before starting the experiments. The regional ethical committee approved sample collection and use of human sperm. Both fresh and frozen human sperm were centrifuged, the supernatant was removed and the sperms were resuspended in HTF-like medium alone or with glycolic acid. Sperms were incubated with the 30 and 60 mM glycolic acid for 10 min before the measurements began. Measurements were performed by an experienced technician from the urology department.
(§1) This enhancement can be observed in human sperm, both defrosted and fresh, and defrosted bull sperm. Two-way ANOVA analysis was used (much more restrictive than a t-Test). * means p<0.05, **p<0.01, ***p<0.001 and […]. […] Both sperm motility and mitochondrial measurements are normalized to a control at time-point 0.

mouse sperm = experiment: Mouse sperm motility and progressivity (CASA system, Hamilton-Thorne); format: cell-based; settings: for difference in treated mouse sperm compared to controls: motility/progressivity
Experimental: Extract epididymis and open them in CPA medium (18% Raffinose and 3% Low fat milk powder). Let spermatozoids swim out for 5 min at room temperature.
For each condition, take 4 μl of mouse sperm in CPA and place in 196 μl of HTF medium from the incubator (at 37° C.). Let it incubate 5 min. in the 37° C. incubator, add substances to the HTF medium (see formulation below) and incubate for different times.
At each time point, fill a Leja-Slide with 25 μl of the HTF buffer containing the diluted sperm and place in the sperm counting machine (Hamilton-Thorne, USA). The machine takes 10 pictures per samples and analyses the different parameters (motility, progressivity,etc. . . . ). Sperm motility analysis was done blindly. Glycolic acid and […] were given to the technician from the facility as Substance 1 and Substance 2, only later did […] get to know which belong to what compound.
(§2) The examples tested the effect of 10 to 30 mM of glycolic acid and D-lactate on mouse sperm motility and progressivity or on bull motility. For this, epididymic mouse sperm from two strains (WT and DJ-1) or ejaculated frozen bull sperm was obtained. Sperm from each individual was divided and treated either with glycolic acid or with the vehicle for up to 90 minutes. Mouse sperm motility and progressivity was determined with the help of an automatized machine (CASA system, Hamilton-Thorne Research, http://www.hamiltonthorne.com/index.php/products/casa-products/sperm-analysis-systems-research) that uses high frequency photo images and image analysis to analyze these parameters. Frozen ejaculated bull sperm motility was assessed by an experienced technician. Mouse sperm from WT and DJ-1 mice was divided by the software into motile and non-motile sperm according to standardized parameters and results are given as percentages of the total population identified as motile sperm (FIG. 1-4). Sperm progressivity alone was analyzed only on the mouse sperm, as only the software from the CASA system is sensitive enough to make this analysis and this machine can only analyze mouse sperm. Bull sperm was divided into progressive motile, motile (the sum of progressive motile and motile on the spot) and the rest (FIGS. 5, 6 and 7).

bull sperm = experiment: Bull sperm motility and progressive motility, defrosted sperm, assessed by technician; format: cell-based
Experimental: Frozen bull sperm was defrosted in a warm bath and centrifuged. The supernatant was removed and the sperms were resuspended in HTF-like medium alone or with glycolic acid. Sperms were incubated with the 10, 20 and 30 mM glycolic acid for 10 min. before the measurements began. Measurements were performed by an experienced technician from the urology department.
as §2

[1] = system: sperm mitochondrial membrane potential; experiment: Mitochondrial membrane potential of sperm (JC-1 and FACS sorting); format: cell-based; settings: JC-1, FACS; normalized to control at time-point 0; FIG. 8
Source text: as §1

[2] = estimated; cited from earlier work
[3] = 10 mM, 30 minutes after application, average stated for mouse and bull sperm

Row | Structure (SMILES) | sperm motility (FIG. 8), normalized to control at time-point 0 (human sperm) | increase in sperm motility (percentage of motile spermatozoids) (mouse sperm; [3]) [%] | increase in sperm progressivity (percentage of motile spermatozoids that move forward) (mouse sperm; [3]) [%] | time over which the enhancement is sustained (mouse sperm; both species) | difference in treated mouse sperm compared to controls (mouse sperm) | increase in sperm motility (percentage of motile spermatozoids) (bull sperm; [3]) [%] | increase in sperm progressivity (percentage of motile spermatozoids that move forward) (bull sperm; [3]) [%] | bull sperm motility and progressivity at higher concentrations (bull sperm; 20 and 30 mM compared to 10 mM glycolic acid) | time over which the enhancement is sustained (bull sperm; both species) | sperm mobility, in particular sperm progressivity, at higher concentrations (bull sperm; concentrations up to 60 mM, data not shown) | sperm motility (FIG. 8), normalized to control at time-point 0 (bull sperm; defrosted bull sperm, significant (p<0.05) over whole experiment) | mitochondrial membrane potential [1] | minimum toxic dose [2]
1 | O=C(O)CO [Glycolic acid, 2-hydroxyethanoic acid] | enhances sperm motility | 19 | 28 | up to 90 min | significance difference | 19 | 28 | further increase | up to 90 min | increase | enhances sperm motility | did not increase | –
2 | OCCOCCO [diethylene glycol] | – | – | – | – | – | – | – | – | – | – | – | – | 0.14 mg glycolic acid per kg of body weight
3 | C[C@@H](O)C(=O)O [D-lactate, reference compound] | – | – | – | – | not | – | – | – | – | – | – | – | –
